According to PMC6017736, “Indole-3-Carbonitriles as DYRK1A Inhibitors by Fragment-Based Drug Design” (Molecules : A Journal of Synthetic Chemistry and Natural …, 2018):

Legend:
DYRK1A [1] = target: T1, DYRK1A (Homo sapiens, UniProt Q13627); assay: Protein kinase assay ([γ-33P]-ATP, RS peptide substrate), DYRK1A; format: biochemical; details: for IC50: 15 µM ATP, read-out: IC50 DYRK 1A; for remaining activity at 10 µM: 10 µM compound, compared to controls, read-out: Residual Activity at 10 µM DYRK 1A
CLK2 = CLK2 (Mus musculus, UniProt O35491); assay: Protein kinase assay ([γ-33P]-ATP, RS peptide substrate), CLK2; format: biochemical; details: for IC50: 15 µM ATP; for remaining activity at 10 µM: compared to controls, read-out: Residual Activity at 10 µM CLK2
Experimental: (§1) DYRK1A, 1B, 2, 3 (human, recombinant, expressed in E. coli as GST fusion proteins) and CLK1, 2, 3, and 4 (mouse, recombinant, expressed in E. coli as GST fusion proteins) were assayed as described for GSK-3 in Buffer A (supplemented extemporaneously with 0.15 mg BSA/mL + 1 mM DTT) with 1 µg of RS peptide ([…]) as a substrate.

DYRK1A [2] = target: T1, DYRK1A; assay: Ligand-lipophilicity efficiency (pIC50 minus calculated logP); details: Table S2
Experimental: All new compounds were evaluated based on their physicochemical properties regarding Lipinski’s rule of five and the ligand-lipophilicity efficiency (LLE). Both concepts are used to assess the druglikeness of drug development candidates. […] LLE is calculated from pIC50 minus calculated logP [46].

CLK4 = CLK4 (Mus musculus, UniProt O35493); assay: Protein kinase assay ([γ-33P]-ATP, RS peptide substrate), CLK4; format: biochemical; details: for IC50: 15 µM ATP; for remaining activity at 10 µM: 10 µM compound, compared to controls, read-out: Residual Activity at 10 µM CLK4
Experimental: as §1

GSK-3 = assay: Protein kinase assay ([γ-33P]-ATP, GS-1 substrate), GSK-3; details: for IC50: read-out: IC50 GSK3, 15 µM ATP; for Residual Activity at 10 µM GSK3 / Inhibition at 10 µM GSK3 (class symbol): 10 µM compound; for Residual Activity at 10 µM GSK3: compared to controls
Experimental: First, the kinases were incubated with 10 µM solutions of the compounds and the residual activities compared to controls were measured.
Controls were performed with appropriate dilutions of DMSO. The GS-1 and RS peptide substrates were obtained from Proteogenix (Oberhausbergen, France).
After 30 min incubation at 30 °C, the reaction was stopped by harvesting onto P81 phosphocellulose supernatant (Whatman) using a FilterMate harvester (Packard) and washing in 1% phosphoric acid. Scintillation fluid was added and the radioactivity measured in a Packard counter [52].
All data points for construction of dose response curves were recorded in triplicate.

CLK1 = CLK1 (Mus musculus, UniProt P22518); assay: Protein kinase assay ([γ-33P]-ATP, RS peptide substrate), CLK1; format: biochemical; details: for IC50: 15 µM ATP; for remaining activity at 10 µM: 10 µM compound, compared to controls, read-out: Residual Activity at 10 µM CLK1
Experimental: as §1

CLK3 = CLK3 (Mus musculus, UniProt O35492); assay: Protein kinase assay ([γ-33P]-ATP, RS peptide substrate), CLK3; format: biochemical; details: for IC50: 15 µM ATP; for remaining activity at 10 µM / inhibition at 10 µM: 10 µM compound; for remaining activity at 10 µM: compared to controls, read-out: Residual Activity at 10 µM CLK3; for inhibition at 10 µM: read-out: Inhibition at 10 µM CLK3 (class symbol)
Experimental: as §1

DYRK1B = DYRK1B (Homo sapiens, UniProt Q9Y463); assay: Protein kinase assay ([γ-33P]-ATP, RS peptide substrate), DYRK1B; format: biochemical; details: for IC50: 15 µM ATP, read-out: IC50 DYRK 1B; for remaining activity at 10 µM: 10 µM compound, compared to controls, read-out: Residual Activity at 10 µM DYRK 1B
Experimental: as §1

DYRK3 = target: T2, DYRK3 (Homo sapiens, UniProt O43781); assay: Protein kinase assay ([γ-33P]-ATP, RS peptide substrate), DYRK3; format: biochemical; details: for IC50: 15 µM ATP; for remaining activity at 10 µM / inhibition at 10 µM: 10 µM compound; for remaining activity at 10 µM: compared to controls, read-out: Residual Activity at 10 µM DYRK3; for inhibition at 10 µM: read-out: Inhibition at 10 µM DYRK3 (class symbol)
T2 sequence (O43781 1-588): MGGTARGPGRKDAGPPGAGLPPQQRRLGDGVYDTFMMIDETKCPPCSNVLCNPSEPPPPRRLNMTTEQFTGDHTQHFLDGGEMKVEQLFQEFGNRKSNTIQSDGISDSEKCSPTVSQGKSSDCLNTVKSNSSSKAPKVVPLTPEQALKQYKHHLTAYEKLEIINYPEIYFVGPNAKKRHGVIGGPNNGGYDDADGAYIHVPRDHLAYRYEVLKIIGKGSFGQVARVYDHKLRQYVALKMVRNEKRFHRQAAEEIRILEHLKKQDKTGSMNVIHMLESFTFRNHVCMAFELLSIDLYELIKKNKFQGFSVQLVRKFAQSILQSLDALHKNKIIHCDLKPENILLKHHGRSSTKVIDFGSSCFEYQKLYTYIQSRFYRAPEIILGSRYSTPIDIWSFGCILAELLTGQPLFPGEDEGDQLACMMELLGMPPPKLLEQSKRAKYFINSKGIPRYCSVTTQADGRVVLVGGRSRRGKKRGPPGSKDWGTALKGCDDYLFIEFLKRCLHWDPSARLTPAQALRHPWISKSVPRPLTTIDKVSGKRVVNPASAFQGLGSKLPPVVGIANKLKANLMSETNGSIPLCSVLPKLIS
Experimental: as §1

DYRK2 = target: T3, DYRK2 (Homo sapiens, UniProt Q92630); assay: Protein kinase assay ([γ-33P]-ATP, RS peptide substrate), DYRK2; format: biochemical; details: for IC50: 15 µM ATP; for remaining activity at 10 µM / inhibition at 10 µM: 10 µM compound; for remaining activity at 10 µM: compared to controls, read-out: Residual Activity at 10 µM DYRK2; for inhibition at 10 µM: read-out: Inhibition at 10 µM DYRK2 (class symbol)
T3 sequence (Q92630 1-601): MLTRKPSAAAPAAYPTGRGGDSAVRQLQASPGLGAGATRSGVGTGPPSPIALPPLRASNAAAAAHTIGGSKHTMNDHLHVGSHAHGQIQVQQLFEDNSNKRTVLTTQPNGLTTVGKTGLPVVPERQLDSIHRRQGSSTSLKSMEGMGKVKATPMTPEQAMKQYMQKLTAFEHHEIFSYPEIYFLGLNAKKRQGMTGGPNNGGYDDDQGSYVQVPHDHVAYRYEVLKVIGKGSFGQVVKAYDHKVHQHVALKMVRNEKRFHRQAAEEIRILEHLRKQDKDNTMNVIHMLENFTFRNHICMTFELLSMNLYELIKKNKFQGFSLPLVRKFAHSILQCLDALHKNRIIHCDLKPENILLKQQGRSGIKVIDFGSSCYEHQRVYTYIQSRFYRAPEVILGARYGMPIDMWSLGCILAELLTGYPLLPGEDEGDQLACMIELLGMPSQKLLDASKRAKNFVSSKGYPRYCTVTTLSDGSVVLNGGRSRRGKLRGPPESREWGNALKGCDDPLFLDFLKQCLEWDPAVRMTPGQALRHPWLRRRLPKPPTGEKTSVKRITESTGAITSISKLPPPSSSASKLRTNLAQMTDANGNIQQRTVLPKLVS
Experimental: as §1

[3] = Cytotoxicity, cell viability by tetrazolium dye assay (XTT assay); format: cell-based; details: human, HeLa cells, 1 µM, read-out: Viability of treated HeLa cells relative to control cells
Experimental: To evaluate the applicability of the 2-substituted indole-3-carbonitrile compounds in cell culture experiments, we assessed toxicity of 6f, 6h, 6s and 13b on HeLa cells by viability assays (Table 4).
The inhibitors were added to the cultured cells from stock solutions in DMSO to the desired final concentration. For cytotoxicity assays, HeLa cells were grown in 96-well plates (20,000–30,000 cells per well) and incubated with the test compounds for 3 days before cell viability was evaluated with the help of a tetrazolium dye assay (XTT assay, AppliChem GmbH, Darmstadt, Germany).

Sequence of DYRK1B (Q9Y463 whole entry): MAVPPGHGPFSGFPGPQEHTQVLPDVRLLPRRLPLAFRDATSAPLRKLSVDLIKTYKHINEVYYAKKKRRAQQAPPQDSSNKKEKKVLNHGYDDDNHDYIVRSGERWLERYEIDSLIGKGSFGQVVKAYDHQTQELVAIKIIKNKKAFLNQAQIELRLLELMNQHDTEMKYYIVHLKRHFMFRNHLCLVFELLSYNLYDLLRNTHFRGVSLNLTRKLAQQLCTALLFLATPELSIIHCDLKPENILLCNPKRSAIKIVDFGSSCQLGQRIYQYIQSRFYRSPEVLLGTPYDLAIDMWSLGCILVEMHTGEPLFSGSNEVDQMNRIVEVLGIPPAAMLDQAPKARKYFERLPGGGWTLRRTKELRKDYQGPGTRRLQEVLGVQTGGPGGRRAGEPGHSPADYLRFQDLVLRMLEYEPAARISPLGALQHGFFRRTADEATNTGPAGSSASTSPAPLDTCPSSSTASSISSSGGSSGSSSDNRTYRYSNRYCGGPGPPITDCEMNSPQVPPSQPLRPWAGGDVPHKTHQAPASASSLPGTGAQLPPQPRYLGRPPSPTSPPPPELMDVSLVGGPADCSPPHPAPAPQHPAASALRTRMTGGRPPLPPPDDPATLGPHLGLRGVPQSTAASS
Sequence of CLK3 (O35492 whole entry): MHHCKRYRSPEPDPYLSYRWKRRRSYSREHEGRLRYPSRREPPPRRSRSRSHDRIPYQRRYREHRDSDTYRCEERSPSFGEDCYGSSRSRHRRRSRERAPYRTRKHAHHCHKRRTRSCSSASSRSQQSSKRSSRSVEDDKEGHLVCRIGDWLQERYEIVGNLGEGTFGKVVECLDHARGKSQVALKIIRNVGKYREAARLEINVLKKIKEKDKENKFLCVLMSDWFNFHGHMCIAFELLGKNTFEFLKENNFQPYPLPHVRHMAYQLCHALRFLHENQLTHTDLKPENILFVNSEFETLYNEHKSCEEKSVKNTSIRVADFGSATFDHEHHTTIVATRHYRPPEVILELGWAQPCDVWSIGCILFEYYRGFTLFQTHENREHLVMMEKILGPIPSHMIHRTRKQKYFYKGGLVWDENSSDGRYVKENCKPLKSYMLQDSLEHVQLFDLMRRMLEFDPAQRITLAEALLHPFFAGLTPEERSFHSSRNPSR
Sequence of CLK1 (P22518 whole entry): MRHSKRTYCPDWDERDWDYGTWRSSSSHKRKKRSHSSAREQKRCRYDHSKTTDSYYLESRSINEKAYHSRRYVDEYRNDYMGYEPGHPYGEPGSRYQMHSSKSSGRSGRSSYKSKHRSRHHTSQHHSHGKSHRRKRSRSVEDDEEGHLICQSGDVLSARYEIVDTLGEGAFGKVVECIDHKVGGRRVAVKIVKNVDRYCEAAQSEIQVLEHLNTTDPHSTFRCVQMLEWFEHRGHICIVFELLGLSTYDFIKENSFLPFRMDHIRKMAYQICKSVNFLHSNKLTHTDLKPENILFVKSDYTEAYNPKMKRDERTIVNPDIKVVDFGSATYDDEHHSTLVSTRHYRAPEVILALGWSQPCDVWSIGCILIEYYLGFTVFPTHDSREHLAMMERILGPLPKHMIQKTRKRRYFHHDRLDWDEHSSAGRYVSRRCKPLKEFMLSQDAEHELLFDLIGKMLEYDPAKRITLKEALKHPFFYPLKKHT
Sequence of CLK4 (O35493 whole entry): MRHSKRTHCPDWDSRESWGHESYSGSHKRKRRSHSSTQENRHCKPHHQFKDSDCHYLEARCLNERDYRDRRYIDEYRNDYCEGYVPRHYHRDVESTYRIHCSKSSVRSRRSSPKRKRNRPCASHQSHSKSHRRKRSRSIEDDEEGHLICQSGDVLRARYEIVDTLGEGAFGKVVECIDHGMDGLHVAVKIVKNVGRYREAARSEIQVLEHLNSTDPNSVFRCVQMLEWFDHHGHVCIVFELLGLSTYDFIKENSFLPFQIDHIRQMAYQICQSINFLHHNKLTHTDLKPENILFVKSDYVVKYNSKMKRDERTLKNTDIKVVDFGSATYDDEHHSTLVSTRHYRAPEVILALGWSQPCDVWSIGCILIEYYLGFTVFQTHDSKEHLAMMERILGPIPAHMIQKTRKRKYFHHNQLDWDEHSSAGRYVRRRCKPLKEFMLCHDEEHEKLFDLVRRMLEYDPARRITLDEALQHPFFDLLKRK
Sequence of CLK2 (O35491 whole entry, the tested form may be a part): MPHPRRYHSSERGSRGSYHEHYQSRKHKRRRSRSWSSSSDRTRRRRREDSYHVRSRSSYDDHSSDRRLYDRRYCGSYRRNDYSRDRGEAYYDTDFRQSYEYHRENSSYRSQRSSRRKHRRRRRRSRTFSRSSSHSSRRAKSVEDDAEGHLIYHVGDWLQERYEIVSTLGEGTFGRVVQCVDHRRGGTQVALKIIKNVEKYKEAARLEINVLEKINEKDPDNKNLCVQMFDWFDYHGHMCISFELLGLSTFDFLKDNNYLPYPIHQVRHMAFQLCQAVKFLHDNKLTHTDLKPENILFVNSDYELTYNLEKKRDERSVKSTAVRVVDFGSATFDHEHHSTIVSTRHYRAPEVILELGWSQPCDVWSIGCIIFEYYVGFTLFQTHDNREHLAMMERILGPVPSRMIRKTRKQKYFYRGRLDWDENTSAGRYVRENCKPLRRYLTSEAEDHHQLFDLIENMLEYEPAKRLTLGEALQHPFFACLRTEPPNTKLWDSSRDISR

Row | SMILES | IC50 (DYRK1A [1]) [nM] | IC50 (CLK2) [µM] | LLE (DYRK1A [2]) | IC50 (CLK4) [nM] | IC50 (CLK1) [nM] | IC50 (CLK3) [µM] | IC50 (DYRK1B) [µM] | IC50 (DYRK3) [µM] | IC50 (DYRK2) [µM] | remaining activity at 10 µM (DYRK1A [1]) [%] | remaining activity at 10 µM (CLK1) [%] | further results
1 | CC(C)c1[nH]c2c(I)cccc2c1C#N [Compound 6q, 7-Iodo-2-isopropyl-1H-indole-3-carbonitrile] | 280 | 0.7 | 2.61 | 100 | 100 | > 10 | 0.53 | > 10 | > 10 | – | – | IC50 (GSK-3): 1300 nM
2 | COc1ccc(-c2[nH]c3c(Cl)cccc3c2C#N)cc1 [Compound 6j, 7-Chloro-2-(4-methoxyphenyl)-1H-indole-3-carbonitrile] | – | – | – | – | – | – | – | – | – | 60 | 47 | Residual Activity at 10 µM GSK3 (GSK-3): 118%
3 | N#Cc1c(CCC2OCCCO2)[nH]c2c(Cl)cccc12 [Compound 6l, 2-(2-(1,3-Dioxan-2-yl)ethyl)-7-chloro-1H-indole-3-carbonitrile] | 3900 | > 10 | 2.57 | 4000 | 4900 | > 10 | > 10 | > 10 | > 10 | – | – | –
4 | N#Cc1c(-c2ccc(Cl)cc2)[nH]c2c(Cl)cccc12 [Compound 6i, 7-Chloro-2-(4-chlorophenyl)-1H-indole-3-carbonitrile] | – | – | – | – | – | – | – | – | – | 60 | 68 | Residual Activity at 10 µM GSK3 (GSK-3): 112%
5 | COc1cccc(-c2[nH]c3c(I)cccc3c2C#N)c1 [Compound 6o, 7-Iodo-2-(3-methoxyphenyl)-1H-indole-3-carbonitrile] | 210 | 3.3 | 2.41 | 290 | 633 | > 10 | 0.633 | > 10 | > 10 | – | – | –
6 | Cn1cc(C#N)c2cccc(Br)c21 [Compound 13d, 7-Bromo-1-methyl-1H-indole-3-carbonitrile] | 1900 | > 10 | 2.80 | > 10000 | 3330 | > 10 | > 10 | > 10 | > 10 | – | – | IC50 (GSK-3): > 10000 nM
7 | Cn1cc(C#N)c2cccc(Cl)c21 [Compound 13c, 7-Chloro-1-methyl-1H-indole-3-carbonitrile] | – | – | – | – | – | – | – | – | – | 32 | 56 | remaining activity at 10 µM (CLK2; 10 µM compound): 70%; remaining activity at 10 µM (CLK4): 30%; remaining activity at 10 µM (CLK3): 97%; remaining activity at 10 µM (DYRK1B): 47%; remaining activity at 10 µM (DYRK3): 95%; remaining activity at 10 µM (DYRK2): 117%
8 | N#Cc1cn(Cc2ccccc2)c2c(Cl)cccc12 [Compound 13a, 1-Benzyl-7-chloro-1H-indole-3-carbonitrile] | – | – | – | – | – | – | – | – | – | 97 | 102 | remaining activity at 10 µM (CLK2; 10 µM compound): 95%; remaining activity at 10 µM (CLK4): 84%; remaining activity at 10 µM (CLK3): 127%; remaining activity at 10 µM (DYRK1B): 78%; remaining activity at 10 µM (DYRK3): 95%; remaining activity at 10 µM (DYRK2): 144%
9 | N#Cc1c(-c2ccccc2)[nH]c2ccccc12 [Compound 6d, 2-Phenyl-1H-indole-3-carbonitrile] | 400 | > 10 | 2.90 | 2000 | 800 | – | 6 | – | – | – | – | Inhibition at 10 µM GSK3 (class symbol) (GSK-3): - (-: less than 20% inhibition at 10 µM, IC50 was not determined); inhibition at 10 µM (CLK3): < 20%; inhibition at 10 µM (DYRK3): < 20%; inhibition at 10 µM (DYRK2): < 20%
10 | Cn1c(-c2ccccc2)c(C#N)c2cccc(Br)c21 [Compound 13e, 7-Bromo-1-methyl-2-phenyl-1H-indole-3-carbonitrile] | 2300 | – | 1.15 | 1000 | > 10000 | – | 10 | – | – | – | – | inhibition at 10 µM (CLK2; 10 µM compound, read-out: Inhibition at 10 µM CLK2 (class symbol)): < 20%; Inhibition at 10 µM GSK3 (class symbol) (GSK-3): - (-: less than 20% inhibition at 10 µM, IC50 was not determined); inhibition at 10 µM (CLK3): < 20%; inhibition at 10 µM (DYRK3): < 20%; inhibition at 10 µM (DYRK2): < 20%
11 | C=CCc1[nH]c2c(Cl)cccc2c1C#N [Compound 6k, 2-Allyl-7-chloro-1H-indole-3-carbonitrile] | 690 | 1.3 | 2.77 | 533 | 533 | > 10 | 1.3 | > 10 | > 10 | – | – | –
12 | COc1ccc(-c2[nH]c3c(I)cccc3c2C#N)cc1 [Compound 6n, 7-Iodo-2-(4-methoxyphenyl)-1H-indole-3-carbonitrile] | 233 | > 10 | 2.36 | 220 | 333 | > 10 | > 10 | > 10 | > 10 | – | – | –
13 | N#Cc1c(-c2ccc(Cl)cc2)[nH]c2c(I)cccc12 [Compound 6m, 7-Iodo-2-(4-chlorophenyl)-1H-indole-3-carbonitrile] | – | – | – | – | – | – | – | – | – | 42 | 55 | remaining activity at 10 µM (CLK2; 10 µM compound): 92%; remaining activity at 10 µM (CLK4): 36%; remaining activity at 10 µM (CLK3): 130%; remaining activity at 10 µM (DYRK1B): 79%; remaining activity at 10 µM (DYRK3): 101%; remaining activity at 10 µM (DYRK2): 116%
14 | CN[C@@H]1C[C@H]2O[C@@](C)([C@@H]1OC)n1c3ccccc3c3c4c(c5c6ccccc6n2c5c31)C(=O)NC4 [Staurosporine, reference compound] | – | – | – | – | – | – | – | – | – | – | – | viability at 3 days, 1 µM [3]: 20%
15 | Cc1cccc2c(C#N)c(-c3ccccc3)[nH]c12 [Compound 6e, 7-Methyl-2-phenyl-1H-indole-3-carbonitrile] | – | – | – | – | – | – | – | – | – | 35 | 56 | remaining activity at 10 µM (CLK2; 10 µM compound): 75%; remaining activity at 10 µM (CLK4): 43%; remaining activity at 10 µM (CLK3): 124%; remaining activity at 10 µM (DYRK1B): 74%; remaining activity at 10 µM (DYRK3): 105%; remaining activity at 10 µM (DYRK2): 75%
